Experimental data: patent US20230212788A1, “NEW METHOD FOR AUTOMATED ON-DEMAND BIOMOLECULAR ARRAY SYNTHESIS” (TECHNISCHE UNIVERSITAT DRESDEN, priority 2020, published 2023)

Legend:
cyclophilin A (CypA) = cyclophilin A (CypA) (Homo sapiens, UniProt P62937); details: array probed by fluorescently labelled CypA, FIG. 11
streptavidin [1] = target: T1, streptavidin (Streptomyces avidinii, UniProt P22629); details: order of magnitude only; cited from earlier work
streptavidin [2] = target: T1, streptavidin; test: Ligand array probed by fluorescently labelled streptavidin; assay type: binding; details: FIG. 10
Excerpt: To increase the coupling yield, each coupling step was repeated two times. Same procedure was used in all amide bond formation reactions. After a capping step using 5% acetic anhydride/2% DIPEA, Fmoc was deprotected by immersing the glass slide in piperidine solution (DMF:ethanol 1:1). All amino groups not in the spotted area were acetylated in the first capping step. Therefore, no amide bond formation would be possible in these area in the following synthesis. The array was then probed by fluorescently labelled streptavidin or CypA (FIGS. 10 and 11). […] At this screening condition, the protein cannot distinguish between pM and low nM binders, while it can distinguish these two strong binders from the weaker µM binder iminobiotin.

L929 cells = test: Adhesion of L929 cells to peptides synthesized as array; assay type: cell-based; details: array without removing the lipophilic group, FIG. 16
Excerpt: There were synthesized cell adhesive peptide RGDSP (SEQ ID NO: 180) and its mutant GGDSP (SEQ ID NO: 179) as array and investigated their effects on the adhesion to L929 cells. As the chitosan hydrogel coating provides a favorable surface for the adhesion of many types of cells, including L929 cells, the array has been synthesized without removing the lipophilic group. […] (FIG. 16) Therefore, the array technology can be used not only for protein-based high throughput screening, but also for developing novel biomaterials as well as cellular assays.

calcineurin = test: Array incubated with fluorescently labelled calcineurin; assay type: binding; details: FIG. 13
Experimental: In order to probe protein-peptide interactions, a peptide was synthesized on the amphiphilic surface. The known calcineurin-binding peptide PVIVIT (SEQ ID NO: 13) and CsA1-COOH were synthesized on the surface. The glass slide was then incubated with fluorescently labelled calcineurin. […] Therefore, the on-demand peptide array synthesis technology can be used to investigate specific protein-peptide interaction.

T1 sequence (P22629 25-183): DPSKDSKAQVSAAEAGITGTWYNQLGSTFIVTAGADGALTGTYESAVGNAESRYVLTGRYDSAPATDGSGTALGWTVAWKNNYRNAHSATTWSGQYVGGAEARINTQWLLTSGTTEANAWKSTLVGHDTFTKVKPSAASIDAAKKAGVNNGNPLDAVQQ
Chain of cyclophilin A (CypA) (P62937 whole entry, species assumed): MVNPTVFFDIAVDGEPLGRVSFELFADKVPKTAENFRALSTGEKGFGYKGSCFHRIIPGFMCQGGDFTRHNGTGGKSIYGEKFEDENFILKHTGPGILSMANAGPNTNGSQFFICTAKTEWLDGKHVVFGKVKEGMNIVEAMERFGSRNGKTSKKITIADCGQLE

| Compound | Kd values / dissociation constant to streptavidin (streptavidin [1]) | adhesion to L929 cells (L929 cells) | other results |
| --- | --- | --- | --- |
| O=C(O)CCCC[C@@H]1SC[C@@H]2NC(=O)N[C@@H]21 [Biotin, biotin] |  |  | binding of CypA to spot (cyclophilin A (CypA)): not |
| C[C@@H]1NC(=O)N[C@@H]1CCCCCC(=O)O [desthiobiotin] | low nM |  |  |
| N=C1N[C@H]2[C@H](CS[C@H]2CCCCC(=O)O)N1 [iminobiotin] | µM |  | fluorescent signal on spot (streptavidin [2]): much weaker than those of biotin and desthiobiotin |
| GGDSP: mutant of cell adhesive peptide RGDSP |  | poor adhesion |  |
| PVIVIT: known calcineurin-binding peptide PVIVIT |  |  | binding of calcineurin to spot (calcineurin): can bind specifically |
| RGDSP: cell adhesive peptide RGDSP |  | strong adhesion |  |
